Laboratory results as given in publication PMC6021035, “Insights into biological activity of ureidoamides with primaquine and amino acid moieties” (Journal of Enzyme Inhibition and Medicinal Chemistry, 2018).
In brackets after ≈: the same amount, converted by molar mass.

Columns and labels:
[1] = system: Aspergillus niger ATCC 16404; assay: MIC determination (broth micro-dilution); format: cell-based; conditions: ATCC16404
Experimental: (§1) Before analysis, compounds 5a–f were dissolved in 96% ethanol in a concentration of 2 mg/ml as stock solutions. Inoculums were prepared with fresh cultures of microbial strains, cultured on tryptic-soy agar or Sabouraud 2% (m/v) dextrose agar for 18 h (48–72 h for fungi) at 30 °C with physiological saline containing approximately […]. Inoculum density (0.5 McFarland units) was adjusted with a bio Mériex (France) densitometer. Minimum inhibitory concentration (MIC) was determined by the twofold micro-dilution method in Mu¨ller–Hinton broth for bacterial strains and RPMI 1640 + 2% m/v dextrose for fungi according to the EUCAST recommendations in a sterile 96-well flat-bottom plastic tissue culture plate. MIC was determined using a linear regression curve after incubation of compounds and reading the optical density at 570 nm using an iEMS microplate reader. […] All tests were performed in triplicate and expressed as the mean.

[2] = system: Candida parapsylosis ATCC 22019; assay: MIC determination (broth micro-dilution); format: cell-based; conditions: ATCC22019
Experimental: as §1

[3] = system: Candida tropicalis ATCC 750; assay: MIC determination (broth micro-dilution); format: cell-based; conditions: ATCC750
Experimental: as §1

[4] = system: Enterococcus hyrae ATCC 8043; assay: MIC determination (broth micro-dilution); format: cell-based; conditions: ATCC8043
Experimental: as §1

[5] = system: Escherichia coli ATCC 10536; assay: MIC determination (broth micro-dilution); format: cell-based; conditions: ATCC10536
Experimental: as §1

[6] = system: Staphylococcus aureus ATCC 25923; assay: MIC determination (broth micro-dilution); format: cell-based; conditions: ATCC25923
Experimental: as §1

[7] = system: Candida albicans ATCC 10231; assay: Minimum biofilm eradication assay; format: cell-based; conditions: ATCC10231, 48 h, read-out: MBEC
Experimental: (§2) We tested the susceptibility of different bacterial and yeast strains to compounds 5a–f by determining the minimum biofilm eradication concentration (MBEC). The test was performed in a sterile 96-well flat-bottom plastic tissue culture plate (TPP, Switzerland). Each well was filled with 100 µl of bacterial (10^7 CFUs/ml) or yeast (5 × 10^6 CFUs/ml) suspension. When the possibility of inhibition of yeast biofilm formation was tested, the wells were pre-treated with FBS (250 µl per well). Negative controls contained broth only. Positive controls were performed using standard antibacterial and antifungal drugs gentamycin and amphotericin B, respectively. The plates were covered and incubated aerobically for 24 h (bacteria) or 48 h (yeast) at 37 °C. Following the incubation period, each well was aspirated and washed three times with 250 µl of PBS and vigorously shaken in order to remove all non-adherent bacteria/yeast. The remaining attached cells were fixed with methanol (15 min) and the plates were left to dry overnight. The formed biofilm was stained with crystal violet (1%, 5 min). Excess stain was rinsed by placing the plate under running tap water and the plates were left to dry for 24 h. Adherent cells were resolubilized with acetic acid (33%, v/v). The optical density of each well was measured at 570 nm using a Multiscan plate reader. The MBEC value represents the lowest compound dilution at which microorganisms fail to grow.

[8] = system: Candida albicans ATCC 90028; assay: Minimum biofilm eradication assay; format: cell-based; conditions: ATCC90028, 48 h, read-out: MBEC
Experimental: as §2

Candida kefyr ATCC 2512 = assay: Minimum biofilm eradication assay; format: cell-based; conditions: Kluyveromyces marxianus, ATCC2512, 48 h, read-out: MBEC
Experimental: as §2

[9] = system: Candida krusei ATCC 14243; assay: Minimum biofilm eradication assay; format: cell-based; conditions: Pichia kudriavzevii, ATCC14243, 48 h, read-out: MBEC
Experimental: as §2

[10] = system: Candida parapsylosis ATCC 22019; assay: Minimum biofilm eradication assay; format: cell-based
Experimental: as §2

[11] = system: Candida tropicalis ATCC 750; assay: Minimum biofilm eradication assay; format: cell-based; conditions: ATCC750, 48 h, read-out: MBEC
Experimental: as §2

[12] = system: Enterococcus faecalis ATCC 29212; assay: Minimum biofilm eradication assay; format: cell-based
Experimental: as §2

[13] = system: Escherichia coli ATCC 10536; assay: Minimum biofilm eradication assay; format: cell-based
Experimental: as §2

[14] = system: Escherichia coli ATCC 8739; assay: Minimum biofilm eradication assay; format: cell-based
Experimental: as §2

[15] = system: Pseudomonas aeruginosa ATCC 27853; assay: Minimum biofilm eradication assay; format: cell-based
Experimental: as §2

[16] = system: Pseudomonas aeruginosa ATCC 9027; assay: Minimum biofilm eradication assay; format: cell-based
Experimental: as §2

[17] = system: Staphylococcus aureus ATCC 25213; assay: Minimum biofilm eradication assay; format: cell-based
Experimental: as §2

[18] = system: Staphylococcus aureus ATCC 6538; assay: Minimum biofilm eradication assay; format: cell-based
Experimental: as §2

[19] = Inhibition of linoleic acid peroxidation (LP), AAPH-initiated; parameters: tested at 100 µM; conditions: 100 μΜ, 37 °C
Experimental: To initiate lipid peroxidation, the free radical AAPH was used[10]. The final solution in the UV cuvette consisted of 10 µl sodium linoleate solution (c = 16 mM) and 0.93 ml phosphate buffer pH 7.4 (c = 50 mM). Afterwards, 10 µl of the tested compound solution in DMSO (final concentration 0.1 mM) and 50 µl of AAPH solution (c = 40 mM) were added. The experiment was performed at 37 °C under air. Oxidation of linoleic acid sodium salt was monitored at 234 nm. The assay was repeated at least in triplicate and the standard deviation of absorbance was less than 10% of the mean. Trolox was used under the same experimental conditions as a reference compound.

[20] = In vitro haemolytic activity; format: cell-based; conditions: male, 4% (v/v) fresh human erythrocyte suspension, 4% human erythrocytes, read-out: Haemolysis (%); for hemolysis at 1 h, 50 µg/ml: pH 7, 50 μg/ml; for hemolysis at 1 h, 100 µg/ml: pH 7, 100 μg/ml; for hemolysis at 1 h, 200 µg/ml: pH 7, 200 μg/ml
Experimental: Then, 4% (v/v) of fresh human erythrocyte solution (hErc) was prepared using a PBS pH 7.0 solution. A series of diluted compounds from 200 to 50 µg/ml were prepared in a total volume of 1 ml with hErc solution. […] Absorbance of the supernatant (200 µl) was recorded at 540 nm using an iEMS microplate reader. The 0.1% (v/v) solution of Triton X100 served as a positive control (as total lysis of hErc), and intact hErc served as a negative control. […] All tests were performed in triplicate and the results were expressed as haemolysis percentage (mean ± SD). Percentage of haemolysis was calculated using the following equation: haemolysis %=Asample-Anc/Apc-Anc×100 where Asample was absorbance of the tested compound, Anc was absorbance of the negative control (intact hErc) and Apc was absorbance of the positive control treated with 0.1% TritonX100. In statistical calculations, p values below 0.05 were considered significant throughout the test. For comparison of mean values, one-way ANOVA with Dunnet’s post-test was used.

| SMILES | MIC [1] [µg/mL] | MIC [2] [µg/mL] | MIC [3] [µg/mL] | MIC [4] [µg/mL] | MIC [5] [µg/mL] | MIC [6] [µg/mL] | minimal effective concentration [7] [µg/mL] | minimal effective concentration [8] [µg/mL] | minimal effective concentration (Candida kefyr ATCC 2512) [µg/mL] | minimal effective concentration [9] [µg/mL] | MBEC [10] [µg/mL] | minimal effective concentration [11] [µg/mL] | MBEC [12] [µg/mL] | MBEC [13] [µg/mL] | MBEC [14] [µg/mL] | MBEC [15] [µg/mL] | MBEC [16] [µg/mL] | MBEC [17] [µg/mL] | MBEC [18] [µg/mL] | LP inhibition (%) ± SD [19] [%] | further results |
| --- | --- | --- | --- | --- | --- | --- | --- | --- | --- | --- | --- | --- | --- | --- | --- | --- | --- | --- | --- | --- | --- |
| COc1cc(NC(C)CCCNC(=O)NC(C(=O)NC(c2ccccc2)c2ccc(Cl)cc2)c2ccc(Cl)cc2)c2ncccc2c1 (stereo not shown) [Compound 5e, 2–(4-chlorophenyl)-N-[(4-chlorophenyl)(phenyl)methyl]-2-[({4-[(6-methoxyquinolin-8-yl)amino]pentyl}carbamoyl)amino]acetamide] | > 100 | > 100 | > 100 | > 100 | 45 (≈ 67.1 µM) | > 100 | 25 | 25 | 6.25 | > 100 | >100 | > 100 | >100 | 50 | 50 | >100 | >100 | >100 | >100 | 80 ± 2.7 | hemolysis at 1 h, 50 µg/ml [20]: 2.78 ± 0.04%; hemolysis at 1 h, 100 µg/ml [20]: 3.23 ± 0.05%; hemolysis at 1 h, 200 µg/ml [20]: 3.7 ± 0.08% |
| COc1ccc(C(=NNC(=O)C(NC(=O)NCCCC(C)Nc2cc(OC)cc3cccnc23)c2ccc(Cl)cc2)c2ccccc2)cc1 (stereo not shown) [Compound 5f, 3-[(4-chlorophenyl)({N'-[(4-methoxyphenyl)(phenyl)methylidene]hydrazinecarbonyl})methyl]-1-{4-[(6-methoxyquinolin-8-yl)amino]pentyl}urea] | > 100 | > 100 | > 100 | > 100 | > 100 | > 100 | 25 | 25 | 6.25 | > 100 | >100 | > 100 | >100 | 12.5 | 6.25 | >100 | >100 | >100 | >100 | 90 ± 3.6 | hemolysis at 1 h, 50 µg/ml [20]: 3.32 ± 0.05%; hemolysis at 1 h, 100 µg/ml [20]: 3.66 ± 0.05%; hemolysis at 1 h, 200 µg/ml [20]: 4.03 ± 0.09% |
